PubChem BioAssay AID463229 (Broad Institute, 2010)
Values joined by “and” are separate entries in the source; they are usually repeats but may differ in a detail not shown here. Identical values can stand only once. Active and inactive are the calls of the source.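 How the source made its calls: active means compounds raising the signal whose fitted half-maximal concentration is at or below their top tested dose (cut at about 25 µM in these data); inconclusive means flat fit at 30 to 70% activity, or a poor fit; inactive means the rest.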

Test system: INS-1E rat beta cells, no cytokines, CellTiter-Glo ATP, 48 h
Assay: cytokine-free beta-cell viability effect – INS-1E rat cells, ATP luminescence, cherry pick, counter-screen for beta-cell apoptosis protection project, dose response (AID 463229)

Structure (SMILES)	AC50
CCOc1ccc(OCc2ccc(C(=O)NN=Cc3ccc[nH]3)cc2)cc1	0.739 µM
O=C(N/N=C/c1ccc(O)cc1O)c1ccc(CN2C(=O)c3cccc4cccc2c34)cc1	3.89 µM
CCN1/C(=C/C(C)=C/c2sc3ccccc3[n+]2CC)Sc2ccccc21	< 0.195 µM
O=C(N/N=C/c1ccccc1O)c1cccc(C(F)(F)F)c1	7.18 µM
CCS(=O)(=O)c1ccc(OC)c(N=Nc2ccc(O)c3ncccc23)c1	9.84 µM
COc1cc(/C=C2\CC(C(C)(C)C)C/C(=C\c3cc(OC)c(OC)c(OC)c3)C2=O)cc(OC)c1OC (stereo not drawn)	6.04 µM
CCN(CC)S(=O)(=O)c1cc(NC(=O)CNc2cccc(S(=O)(=O)N3CCCC3)c2)ccc1C	7.43 µM
FC(F)(F)c1nc2ccccc2n2c(-c3ccc(Cl)cc3)nnc12	7.14 µM
CCN(CC)c1ccc(/C=N/NC(=O)Cc2cccs2)c(O)c1	4.5 µM
N#Cc1c(N2CCCCC2)nc(N2CCCCC2)c2c1CCN(Cc1ccccc1)C2	13.8 µM
COc1cccc(/C=N/NC(=O)c2cc(-c3ccccn3)nc3ccccc23)c1O	7.61 µM
O=C(Nc1nc(-c2ccccn2)cs1)c1ccc(Br)s1	6.75 µM
Oc1ccc(Nc2nc(N3CCCC3)c3ccccc3n2)cc1	18.9 µM
O=C(c1cc(COc2ccc3ncccc3c2)on1)N1CCCCCC1	8.02 µM
Cc1ccc(NC(=O)c2nc(S(=O)(=O)Cc3ccccc3)ncc2Cl)cc1	15.3 µM
C[n+]1c2n(c3ccccc31)N=C(c1ccc(-c3ccccc3)cc1)CS2	1.74 µM
CC1=C/C(=N\OS(=O)(=O)c2ccccc2)C(C)=CC1=O	1.52 µM
COc1ccc(-c2nn(-c3ccccc3)cc2/C=N/Nc2ccc3ccccc3n2)cc1OC	7.19 µM
Cc1cc[n+](C(C)C(=O)c2ccc(-c3ccccc3)cc2)cc1 (stereo not drawn)	3.81 µM
Cc1cc(C)c2c(N)c3cccc(C)c3nc2n1	7.91 µM
COc1ccc(Cn2c(SCc3ccccc3C)nc3cc(OC)c(OC)cc3c2=N)cc1	7.93 µM
C(C#CCCCCCCCCC[n+]1ccccc1)#CCCCCCCCCC[n+]1ccccc1	1.9 µM
COc1cc(OC)c(NC2=CC(=O)C(=O)c3ccccc32)cc1Cl	8.07 µM
O=C(N/N=C(\c1ccccc1)c1ccccn1)c1ccccc1Cl	6.14 µM
CCN(CC)c1ccc(/C=N/NC(=O)c2ccoc2C)c(O)c1	2.04 µM
CCOc1ccc(-n2c(-c3ccccc3)c[n+]3c2CCC3)cc1	1.53 µM

Structure (SMILES)	AC50
COc1ccc(-c2csc(NC(=O)c3ccccc3NS(=O)(=O)c3ccc(F)c(F)c3)n2)cc1	3.52 µM
Nc1cc2c3c(cccc3c1)C(=O)N(CCN1CCCC1)C2=O	12.7 µM
CC[C@H]1CN2CCc3cc(OC)c(OC)cc3[C@@H]2C[C@@H]1C[C@H]1NCCc2cc(OC)c(OC)cc21	9.67 µM
N#CC1=C(N)N2C(=C(C#N)C1c1ccc(Br)cc1)Nc1ccccc12 (stereo not drawn)	1.87 µM
CC(=O)Oc1c(C)cc(Cl)cc1C(=O)Nc1ccc([N+](=O)[O-])cc1Cl	1.43 µM
Cc1nc2ccccc2n1Cc1ccc(Br)cc1	5.63 µM
O=C(NCc1cccnc1)/C(=C\c1ccc(-c2ccc(Cl)c(Cl)c2)o1)S(=O)(=O)c1ccccc1	4.62 µM
Cn1nc(CC(=O)Nc2ccc3c(c2)OCCO3)c2ccccc2c1=O	5.63 µM
Cc1cccnc1Nc1nc(-c2ccccn2)cs1	2.58 µM
CC(C)c1ccc(COc2ccc(C(=O)N3CCOCC3)cc2)cc1	12.9 µM
COC(/C(=N/O)c1ccc(Cl)cc1)c1ccccc1 (stereo not drawn)	2.66 µM
COc1cccc(/C=N/Nc2ccnc(=O)[nH]2)c1O	22.7 µM
CCOc1ccc(Nc2nc(Cc3nnc(SCC(=O)c4ccc(C)c(C)c4)o3)cs2)cc1	10.6 µM
COC(=O)[C@H](CC(C)C)N(Cc1ccccc1)S(=O)(=O)N(Cc1ccccc1)[C@@H](CC(C)C)C(=O)OC	15.5 µM
C=CCc1cccc(/C=N/NC(=O)CCC(=O)Nc2ccc(F)cc2)c1O	10.2 µM
O=C(Nc1ccc(N2CCN(C(=O)c3ccc(Cl)cc3)CC2)cc1)c1cccnc1	18.7 µM
Cc1cc(Br)cc(/C=N/NC(=O)c2ccc3c(c2)OCO3)c1O	7.43 µM
COc1ccc2cc1Oc1ccc(cc1)C[C@H]1c3cc(c(OC)cc3CCN1C)Oc1c(O)c(OC)cc3c1[C@H](C2)N(C)CC3	7.07 µM
CC1CCC(C(C)C)C(OC(=O)Cn2c(-c3ccc(Br)cc3)[n+](C)c3ccccc32)C1 (stereo not drawn)	3.86 µM and 4.4 µM
CN(C)C(=O)c1ccc(NC(=O)c2cccc(S(=O)(=O)N3CCCCCC3)c2)cc1	> 26 µM (inactive)
COc1ccc(OC)c2sc(N(CCCN(C)C)C(=O)c3ccc(S(=O)(=O)N4CCc5ccccc5C4)cc3)nc12	2.23 µM
Cc1oc2c(c1C(=O)N1CCOCC1)C(=O)c1ccccc1C2=O	8.12 µM
Cc1cc(C)cc(NC(=O)/C(C#N)=C/c2cn(CC(=O)NCc3ccco3)c3ccccc23)c1	5.06 µM
Cc1cccc(NC(=S)N/N=C/c2ccc([N+](=O)[O-])s2)c1	7.67 µM
O=C(N/N=C/c1cc(Br)cc(Cl)c1O)c1ccc2c(c1)OCO2	11 µM
O=C(Nc1nc2ccc([N+](=O)[O-])cc2s1)c1ccc(S(=O)(=O)N2CCCc3ccccc32)cc1	2.63 µM

Structure (SMILES)	AC50
CCCCCc1ccc(OCCCC[n+]2ccc(C)cc2)c(CCCCC)c1	2.34 µM
CCN1/C(=C/c2cccc[n+]2C)Sc2ccc(OC)cc21	1.58 µM
Cc1cc(N/N=C/c2ccc(O)cc2O)nc(-c2ccccc2O)n1	7.47 µM
Cc1ccc(S(=O)(=O)/N=C2\C=C(Nc3ccc(O)cc3)C(=O)c3ccccc32)cc1	1.91 µM
Cc1ccc(NC(=O)c2cc(S(=O)(=O)NCCC3=CCCCC3)ccc2F)cc1F	6.58 µM
COc1ccc2nc(C)cc(SCC(=O)N/N=C/c3ccc(O)cc3O)c2c1	17.4 µM
O=C(c1cc(-c2ccccc2Cl)nc2ccccc12)N1CCN(c2ccccn2)CC1	4.44 µM
COc1cc(C(=O)NC(=S)NNC(=O)c2cnccn2)cc(OC)c1OC	7.66 µM
CCOC(=O)C1CCN(Cc2ccc(O)c3ncccc23)CC1	12.5 µM
O=C(Oc1c(CN2CCOCC2)cc(Cl)c2cccnc12)c1cccs1	16 µM
Cc1cccc(NC(=O)c2ccc([N+](=O)[O-])s2)c1C	26.1 µM
CC1(C)C[C@@H]2C[C@@](C)(CN2C(=O)c2cc(COc3cccc(C(F)(F)F)c3)on2)C1	17 µM
COc1cnc(-c2ccccn2)nc1Sc1ccc(C)cc1	17.2 µM
CN(c1ccccc1)S(=O)(=O)c1ccc(NC(=O)c2nc(S(C)(=O)=O)ncc2Cl)cc1	7.32 µM
O=C(NCc1ccccc1)C1=C[C@@H](c2csc3ccccc23)C[C@@H](OCc2ccc(CO)cc2)O1	5.16 µM
O=S1(=O)C=C(Sc2nc3ccccc3s2)c2ccccc21	5.35 µM
Cc1ccc(Nc2c(-c3ccccn3)nc3cc(C)ccn23)cc1	7.49 µM
Oc1c(CN2CCN(c3ccc(F)cc3)CC2)cc(Cl)c2cccnc12	4.27 µM
Cn1nc(C(C)(C)C)cc1C(=O)NCc1ccc2c(c1)OCO2	4.47 µM
COc1ccc(-c2n(Cc3ccccc3)c3ccccc3[n+]2Cc2ccccc2)cc1	3.95 µM
O=C(CN(Cc1ccco1)Cc1ccco1)Nc1cc(S(=O)(=O)N2CCCCC2)ccc1Cl	7.47 µM
Cc1ccc(N=Nc2c(O)ccc3n[nH]nc23)cc1	4.37 µM
CCCC(=O)NC(c1ccccc1OC)c1ccc2cccnc2c1O (stereo not drawn)	3.28 µM
Cc1cc(C)nc(N/N=C2/CCCC/C2=C\c2ccccc2)n1	3.72 µM
CNC[C@@H](Cc1ccccc1)NC[C@@H](CC1CCCCC1)NCCCc1ccccc1	7.41 µM
O=S(=O)(c1ccc2nc(Nc3ccccc3)ccc2c1)N1CCCCC1	22.4 µM
